Columns and labels:
[1] = molar heat capacity at constant pressure; xn = mol fraction of the nth substance listed; details: 101.3 kPa, Liquid, Small sample (50 mg) DSC
[2] = excess molar enthalpy (molar enthalpy of mixing); xn = mol fraction of the nth substance listed; details: 101 kPa, Liquid, Calvet calorimetry

CCOS(=O)(=O)[O-].CCn1cc[n+](C)c1 [1-ethyl-3-methylimidazolium ethyl sulfate] + O
Details | excess molar enthalpy [kJ/mol] | molar heat capacity at constant pressure [J/K/mol]
[1], 283.15 K, x2 = 0 | – | 365
[1], 283.15 K, x2 = 0.212 | – | 294
[1], 283.15 K, x2 = 0.4079 | – | 235
[1], 283.15 K, x2 = 0.5925 | – | 179
[1], 283.15 K, x2 = 0.766 | – | 142
[1], 283.15 K, x2 = 0.8495 | – | 115
[1], 283.15 K, x2 = 0.9282 | – | 95
[1], 283.15 K, x2 = 0.9684 | – | 83
[1], 283.15 K, x2 = 0.9916 | – | 78
[1], 293.15 K, x2 = 0 | – | 371
[1], 293.15 K, x2 = 0.212 | – | 297
[1], 293.15 K, x2 = 0.4079 | – | 239
[1], 293.15 K, x2 = 0.5925 | – | 184
[1], 293.15 K, x2 = 0.766 | – | 145
[1], 293.15 K, x2 = 0.8495 | – | 118
[1], 293.15 K, x2 = 0.9282 | – | 96
[1], 293.15 K, x2 = 0.9684 | – | 85
[1], 293.15 K, x2 = 0.9916 | – | 78
[1], 303.15 K, x2 = 0 | – | 380
[1], 303.15 K, x2 = 0.212 | – | 304
[1], 303.15 K, x2 = 0.4079 | – | 245
[1], 303.15 K, x2 = 0.5925 | – | 190
[1], 303.15 K, x2 = 0.766 | – | 149
[1], 303.15 K, x2 = 0.8495 | – | 122
[1], 303.15 K, x2 = 0.9282 | – | 98
[1], 303.15 K, x2 = 0.9684 | – | 86
[1], 303.15 K, x2 = 0.9916 | – | 79
[1], 313.15 K, x2 = 0 | – | 386
[1], 313.15 K, x2 = 0.212 | – | 309
[1], 313.15 K, x2 = 0.4079 | – | 249
[1], 313.15 K, x2 = 0.5925 | – | 193
[1], 313.15 K, x2 = 0.766 | – | 152
[1], 313.15 K, x2 = 0.8495 | – | 124
[1], 313.15 K, x2 = 0.9282 | – | 100
[1], 313.15 K, x2 = 0.9684 | – | 87
[1], 313.15 K, x2 = 0.9916 | – | 79
[1], 323.15 K, x2 = 0 | – | 392
[1], 323.15 K, x2 = 0.212 | – | 314
[1], 323.15 K, x2 = 0.4079 | – | 253
[1], 323.15 K, x2 = 0.5925 | – | 197
[1], 323.15 K, x2 = 0.766 | – | 154
[1], 323.15 K, x2 = 0.8495 | – | 126
[1], 323.15 K, x2 = 0.9282 | – | 101
[1], 323.15 K, x2 = 0.9684 | – | 88
[1], 323.15 K, x2 = 0.9916 | – | 79
[1], 333.15 K, x2 = 0 | – | 397
[1], 333.15 K, x2 = 0.212 | – | 319
[1], 333.15 K, x2 = 0.4079 | – | 256
[1], 333.15 K, x2 = 0.5925 | – | 201
[1], 333.15 K, x2 = 0.766 | – | 157
[1], 333.15 K, x2 = 0.8495 | – | 127
[1], 333.15 K, x2 = 0.9282 | – | 102
[1], 333.15 K, x2 = 0.9684 | – | 88
[1], 333.15 K, x2 = 0.9916 | – | 80
[1], 343.15 K, x2 = 0 | – | 403
[1], 343.15 K, x2 = 0.212 | – | 324
[1], 343.15 K, x2 = 0.4079 | – | 260
[1], 343.15 K, x2 = 0.5925 | – | 204
[1], 343.15 K, x2 = 0.766 | – | 158
[1], 343.15 K, x2 = 0.8495 | – | 129
[1], 343.15 K, x2 = 0.9282 | – | 103
[1], 343.15 K, x2 = 0.9684 | – | 89
[1], 343.15 K, x2 = 0.9916 | – | 80
[2], 313.14 K, x2 = 0.2496 | -0.457 | –
[2], 313.14 K, x2 = 0.2497 | -0.459 | –
[2], 313.14 K, x2 = 0.4936 | -0.767 | –
[2], 313.14 K, x2 = 0.4951 | -0.77 | –
[2], 313.14 K, x2 = 0.7491 | -0.967 | –
[2], 313.14 K, x2 = 0.7495 | -0.975 | –
[2], 323.12 K, x2 = 0.2425 | -0.486 | –
[2], 323.12 K, x2 = 0.2486 | -0.478 | –
[2], 323.12 K, x2 = 0.4979 | -0.79 | –
[2], 323.12 K, x2 = 0.4991 | -0.791 | –
[2], 323.12 K, x2 = 0.7464 | -0.923 | –
[2], 323.12 K, x2 = 0.7481 | -0.945 | –
[2], 333.11 K, x2 = 0.2483 | -0.496 | –
[2], 333.11 K, x2 = 0.2496 | -0.505 | –
[2], 333.11 K, x2 = 0.496 | -0.8 | –
[2], 333.11 K, x2 = 0.4974 | -0.79 | –
[2], 333.11 K, x2 = 0.7476 | -0.912 | –
[2], 333.11 K, x2 = 0.7484 | -0.911 | –
[2], 348.12 K, x2 = 0.2492 | -0.523 | –
[2], 348.12 K, x2 = 0.2499 | -0.524 | –
[2], 348.12 K, x2 = 0.4948 | -0.798 | –
[2], 348.12 K, x2 = 0.498 | -0.798 | –
[2], 348.12 K, x2 = 0.7477 | -0.832 | –
[2], 348.12 K, x2 = 0.7483 | -0.834 | –
